Laboratory results from patent publication US20250188069A1, “COMPOUNDS AND METHODS FOR DEGRADING CASEIN KINASE 1 ALPHA” (PIN THERAPEUTICS, INC., priority 2022, published 2025).
Like-named read-outs stand apart in the source and are kept apart here.

Assays:
Assay type in all cases: cell-based
[1] = system: MV-4-11 cells; assay: AML cell viability assay (RealTime-Glo); settings: Homo sapiens, MV4-11, IC50 class, MV-4-11 cells, read-out: Cell viability classification
[2] = target: T1, CK1α (Homo sapiens, UniProt P48729+Q96SW2); assay: CK1α HiBiT assay in CK1a_HiBiT_Jurkat cells; settings: DC50 class, 16 hours, Nano-Glo HiBiT Lytic Detection, read-out: CK1α degradation classification
Procedure: CK1a_HiBiT_Jurkat cells were culture in RPMI 1640 medium (Gibco, 11875093) with 10% FBS under standard tissue culture conditions. Briefly, Compounds of the present disclosure was added to 30,000 cells in a white 96-well plate (9-point dose response, top concentration […], half-log serial dilution, final DMSO concentration 0.5%) and incubated for 16 hours. CK1a level was determined in along with the Nano-Glo HiBiT Lytic Detection system [Promega N3050] with final concentration of 1 x. The luminescence was normalized to that of DMSO-treated samples. DC50 values were obtained using three-parameter non-linear regressions using Prism (GraphPad). The compounds are classified based on DC50 values as follows. • A: DC50 is less than or equal to 1×10^−7; • B: DC50 is greater than 1×10^−7 & less than or equal to 1×10^−6; • C: DC50 is greater than 1×10^−6; • NA: not calculated (no activity detected, <25% viability reduction at 1 uM)

[3] = target: T1, CK1α; assay: CK1α degradation, flow cytometry in MV4-11 cells; parameters: CK1α levels were determined in MV-4-11 cells using Jess (Protein Simple); host or cells: MV-4-11; settings: % reduction of CK1α compared to DMSO, MV4-11 cells at 316 nM for 16 hours, read-out: CK1α degradation classification
[4] = RealTime-Glo after 44 hrs of treatment (TABLE 5)
[5] = RealTime-Glo after 44 hrs of treatment (TABLE 3)

T1 sequence (P48729 whole entry): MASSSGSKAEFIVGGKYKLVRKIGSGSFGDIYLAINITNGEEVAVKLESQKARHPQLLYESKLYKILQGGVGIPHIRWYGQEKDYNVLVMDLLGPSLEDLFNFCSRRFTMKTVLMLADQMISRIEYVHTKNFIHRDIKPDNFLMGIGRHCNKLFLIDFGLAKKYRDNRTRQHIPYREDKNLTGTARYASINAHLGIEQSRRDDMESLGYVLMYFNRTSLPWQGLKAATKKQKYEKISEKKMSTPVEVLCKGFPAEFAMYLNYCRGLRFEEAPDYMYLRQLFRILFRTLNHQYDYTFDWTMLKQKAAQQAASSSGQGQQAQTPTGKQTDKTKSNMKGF
T1 sequence (Q96SW2 whole entry): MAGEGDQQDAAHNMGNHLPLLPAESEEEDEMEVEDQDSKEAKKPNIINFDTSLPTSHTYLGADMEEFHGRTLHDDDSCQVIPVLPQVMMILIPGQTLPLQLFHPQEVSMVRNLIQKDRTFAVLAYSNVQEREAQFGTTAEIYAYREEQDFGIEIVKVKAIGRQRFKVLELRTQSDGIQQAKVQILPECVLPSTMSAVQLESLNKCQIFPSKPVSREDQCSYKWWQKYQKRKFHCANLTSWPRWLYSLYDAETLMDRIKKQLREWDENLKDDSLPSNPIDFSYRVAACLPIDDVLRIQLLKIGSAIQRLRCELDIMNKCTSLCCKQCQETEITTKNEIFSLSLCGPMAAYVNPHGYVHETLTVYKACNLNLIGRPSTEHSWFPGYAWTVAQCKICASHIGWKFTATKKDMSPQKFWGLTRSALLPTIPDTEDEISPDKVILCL
T1 sequence (Q16531 whole entry partner): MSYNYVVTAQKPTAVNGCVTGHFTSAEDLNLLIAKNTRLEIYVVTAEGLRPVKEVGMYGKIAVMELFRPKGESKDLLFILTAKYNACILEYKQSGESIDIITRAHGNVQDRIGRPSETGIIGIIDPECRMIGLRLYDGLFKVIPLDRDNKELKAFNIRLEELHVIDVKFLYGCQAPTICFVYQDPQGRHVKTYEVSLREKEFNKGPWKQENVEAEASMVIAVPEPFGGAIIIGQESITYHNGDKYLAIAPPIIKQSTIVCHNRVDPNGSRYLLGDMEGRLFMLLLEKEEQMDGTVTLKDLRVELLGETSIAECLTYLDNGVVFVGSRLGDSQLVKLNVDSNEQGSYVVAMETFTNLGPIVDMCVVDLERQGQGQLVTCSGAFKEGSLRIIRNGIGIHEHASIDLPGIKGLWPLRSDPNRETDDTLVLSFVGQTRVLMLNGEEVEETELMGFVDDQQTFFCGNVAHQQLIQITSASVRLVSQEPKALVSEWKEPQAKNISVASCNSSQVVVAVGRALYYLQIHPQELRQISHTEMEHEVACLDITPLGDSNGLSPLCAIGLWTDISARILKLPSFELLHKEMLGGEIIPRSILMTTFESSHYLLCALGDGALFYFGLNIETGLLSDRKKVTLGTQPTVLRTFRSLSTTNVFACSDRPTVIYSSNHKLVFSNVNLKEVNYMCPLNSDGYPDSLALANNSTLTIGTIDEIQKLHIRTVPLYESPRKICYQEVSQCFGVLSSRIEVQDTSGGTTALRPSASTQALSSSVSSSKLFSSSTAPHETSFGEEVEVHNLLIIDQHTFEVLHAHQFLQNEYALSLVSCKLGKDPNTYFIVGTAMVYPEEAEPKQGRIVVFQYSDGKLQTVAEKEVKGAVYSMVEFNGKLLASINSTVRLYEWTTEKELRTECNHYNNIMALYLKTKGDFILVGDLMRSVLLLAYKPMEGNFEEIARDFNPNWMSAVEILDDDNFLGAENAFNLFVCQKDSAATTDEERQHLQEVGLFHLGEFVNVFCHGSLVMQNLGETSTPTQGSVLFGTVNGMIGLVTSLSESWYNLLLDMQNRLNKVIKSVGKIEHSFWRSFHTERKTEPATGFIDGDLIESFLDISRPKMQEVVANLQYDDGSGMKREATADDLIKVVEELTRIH

SMILES | IC50 [1, 4] | DC50 [2] | IC50 [1, 5] | Dmax at 0.316 µM [3]
CC1(C)CC(CN(c2cccc3c2CN(C2CCC(=O)NC2=O)C3=O)[C@H]2CC[C@H](NCCC(F)(F)F)CC2)C1 (single isomer, unassigned) [Compound 652A, 3-(4-{[(3,3-dimethylcyclobutyl)methyl][(1s,4s)-4-[(3,3,3-trifluoropropyl)amino]cyclohexyl]amino}-1-oxo-3H-isoindol-2-yl)piperidine-2,6-dione; bis(trifluoroacetic acid)] | > 1000 nM | > 1000 nM |  | 
CC(CC(F)(F)F)N[C@H]1CC[C@H](N(CCC2CC2)c2cccc3c2CN(C2CCC(=O)NC2=O)C3=O)CC1 (stereo partly drawn) [Compound 547, 3-{4-[(2-cyclopropylethyl)[(1r,4r)-4-[(4,4,4-trifluorobutan-2-yl)amino]cyclohexyl]amino]-1-oxo-3H-isoindol-2-yl}piperidine-2,6-dione] |  |  | < 100 nM | > 75%
O=C1CCC(N2Cc3c(cccc3N(CCC3CC3)[C@H]3CC[C@@H](NCCCC(F)(F)F)CC3)C2=O)C(=O)N1 (stereo partly drawn) [Compound 642A] | > 1000 nM | ≤ 100 nM |  | 
O=C1CCC(N2Cc3c(cccc3N(CCC3CC3)[C@H]3CC[C@H](NC45CC(C(F)(F)F)(C4)C5)CC3)C2=O)C(=O)N1 (stereo partly drawn) [Compound 646, 3-{4-[(2-cyclopropylethyl)[(1r,4r)-4-{[3-(trifluoromethyl)bicyclo[1.1.1]pentan-1-yl]amino}cyclohexyl]amino]-1-oxo-3H-isoindol-2-yl}piperidine-2,6-dione; trifluoroacetic acid] | 100 to 1000 nM | ≤ 100 nM |  | 
O=C1CCC(N2Cc3c(cccc3N(CC3CC(F)(F)C3)[C@H]3CC[C@H](NCCC(F)(F)F)CC3)C2=O)C(=O)N1 (stereo partly drawn) [Compound 650, 3-(4-{[(3,3-difluorocyclobutyl)methyl][(1r,4r)-4-[(3,3,3-trifluoropropyl)amino]cyclohexyl]amino}-1-oxo-3H-isoindol-2-yl)piperidine-2,6-dione] | 100 to 1000 nM | ≤ 100 nM |  | 
CC1(C)CC(CN(c2cccc3c2CN(C2CCC(=O)NC2=O)C3=O)[C@H]2CC[C@H](NCCC(F)(F)F)CC2)C1 (stereo partly drawn) [Compound 652, 3-(4-{[(3,3-dimethylcyclobutyl)methyl][(1r,4r)-4-[(3,3,3-trifluoropropyl)amino]cyclohexyl]amino}-1-oxo-3H-isoindol-2-yl)piperidine-2,6-dione; bis(trifluoroacetic acid)] | > 1000 nM | ≤ 100 nM |  | 
O=C1CCC(N2Cc3c(cccc3N(CC3CC(F)(F)C3)[C@H]3CC[C@H](NCC4(C(F)(F)F)CC4)CC3)C2=O)C(=O)N1 (stereo partly drawn) [Compound 655, 3-(4-{[(3,3-difluorocyclobutyl)methyl][(1r,4r)-4-({[1-(trifluoromethyl)cyclopropyl]methyl}amino)cyclohexyl]amino}-1-oxo-3H-isoindol-2-yl)piperidine-2,6-dione] | > 1000 nM | 100 to 1000 nM |  | 
O=C1CCC(N2Cc3c(cccc3N(CC3CC4(CCC4)C3)[C@H]3CC[C@@H](NCC4(C(F)(F)F)CC4)CC3)C2=O)C(=O)N1 (stereo partly drawn) [Compound 656A, 3-(1-oxo-4-{[(1s,4s)-4-({[1-(trifluoromethyl)cyclopropyl]methyl}amino)cyclohexyl]({spiro[3.3]heptan-2-ylmethyl})amino}-3H-isoindol-2-yl)piperidine-2,6-dione; trifluoroacetic acid] |  | > 1000 nM |  | 
O=C1CCC(N2Cc3c(cccc3N(CCC3CC3)[C@H]3CC[C@@H](N4CCCC4)CC3)C2=O)C(=O)N1 (stereo partly drawn) [Compound 669A] |  | 100 to 1000 nM |  | 
O=C1CCC(N2Cc3c(cccc3N(CCC3CC3)[C@H]3CC[C@@H](N4CCC(F)(F)C4)CC3)C2=O)C(=O)N1 (stereo partly drawn) [Compound 670A] |  | 100 to 1000 nM |  | 
O=C1CCC(N2Cc3c(cccc3N(CCC3CC3)[C@H]3CC[C@@H](N4CCC(F)C4)CC3)C2=O)C(=O)N1 (stereo partly drawn) [Compound 671A, 3-{4-[(2-cyclopropylethyl)[(1s,4s)-4-(3-fluoropyrrolidin-1-yl)cyclohexyl]amino]-1-oxo-3H-isoindol-2-yl}piperidine-2,6-dione] |  | 100 to 1000 nM |  | 
O=C1CCC(N2Cc3c(cccc3N(CCC3CC3)[C@H]3CC[C@@H](N4CC(C(F)(F)F)C4)CC3)C2=O)C(=O)N1 (stereo partly drawn) [Compound 673A] |  | 100 to 1000 nM |  | 
O=C1CCC(N2Cc3c(cccc3N(CCC3CC3)[C@H]3CC[C@@H](N4CCOCC4)CC3)C2=O)C(=O)N1 (stereo partly drawn) [Compound 674A, 3-{4-[(2-cyclopropylethyl)[(1s,4s)-4-(morpholin-4-yl)cyclohexyl]amino]-1-oxo-3H-isoindol-2-yl}piperidine-2,6-dione] |  | 100 to 1000 nM |  | 
O=C1CCC(N2Cc3c(cccc3N(CCC3CC3)[C@H]3CC[C@@H](N[C@H]4CC[C@@H]4C(F)(F)F)CC3)C2=O)C(=O)N1 (stereo partly drawn) [Compound 675A, 3-{4-[(2-cyclopropylethyl)[(1s,4s)-4-{[(1S,2S)-2-(trifluoromethyl)cyclobutyl]amino}cyclohexyl]amino]-1-oxo-3H-isoindol-2-yl}piperidine-2,6-dione; bis(trifluoroacetic acid)] |  | 100 to 1000 nM |  | 
CN(CCC(F)(F)F)[C@H]1CC[C@@H](N(CCC2CC2)c2cccc3c2CN(C2CCC(=O)NC2=O)C3=O)CC1 (stereo partly drawn) [Compound 682A] |  | 100 to 1000 nM |  | 

Results, then the compound that gave them:

IC50 [1, 4] | DC50 [2] | IC50 [1, 5] | Dmax at 0.316 µM [3] | SMILES
 |  | 100 to 1000 nM | < 50% | C[C@@H](N[C@H]1CC[C@H](N(CCC2CC2)c2cccc3c2CN(C2CCC(=O)NC2=O)C3=O)CC1)C(F)(F)F (stereo partly drawn) [Compound 548, 3-(4-((2-cyclopropylethyl)((1r,4r)-4-(((R)-1,1,1-trifluoropropan-2-yl)amino)cyclohexyl)amino)-1-oxoisoindolin-2-yl)piperidine-2,6-dione]
 |  | 100 to 1000 nM | 50 to 75% | C[C@@H](N[C@H]1CC[C@@H](N(CCC2CC2)c2cccc3c2CN(C2CCC(=O)NC2=O)C3=O)CC1)C(F)(F)F (stereo partly drawn) [Compound 548A, 3-(4-((2-cyclopropylethyl)((1s,4s)-4-(((R)-1,1,1-trifluoropropan-2-yl)amino)cyclohexyl)amino)-1-oxoisoindolin-2-yl)piperidine-2,6-dione]
< 100 nM | ≤ 100 nM |  |  | O=C1CCC(N2Cc3c(cccc3N(CCC3CC3)[C@H]3CC[C@H](NCCC(F)F)CC3)C2=O)C(=O)N1 (stereo partly drawn) [Compound 643, 3-{4-[(2-cyclopropylethyl)[(1r,4r)-4-[(3,3-difluoropropyl)amino]cyclohexyl]amino]-1-oxo-3H-isoindol-2-yl}piperidine-2,6-dione; trifluoroacetic acid]
 | > 1000 nM |  |  | O=C1CCC(N2Cc3c(cccc3N(CC3CC(F)(F)C3)[C@H]3CC[C@@H](NCCC(F)(F)F)CC3)C2=O)C(=O)N1 (stereo partly drawn) [Compound 650A, 3-(4-{[(3,3-difluorocyclobutyl)methyl][(1s,4s)-4-[(3,3,3-trifluoropropyl)amino]cyclohexyl]amino}-1-oxo-3H-isoindol-2-yl)piperidine-2,6-dione]
> 1000 nM | ≤ 100 nM |  |  | O=C1CCC(N2Cc3c(cccc3N(CC3CC4(CCC4)C3)[C@H]3CC[C@H](NCCC(F)(F)F)CC3)C2=O)C(=O)N1 (stereo partly drawn) [Compound 651, 3-(1-oxo-4-{[(1r,4r)-4-[(3,3,3-trifluoropropyl)amino]cyclohexyl]({spiro[3.3]heptan-2-ylmethyl})amino}-3H-isoindol-2-yl)piperidine-2,6-dione; trifluoroacetic acid]
 | > 1000 nM |  |  | O=C1CCC(N2Cc3c(cccc3N(CC3CC(F)(F)C3)[C@H]3CC[C@@H](NCC4(C(F)(F)F)CC4)CC3)C2=O)C(=O)N1 (stereo partly drawn) [Compound 655A, 3-(4-{[(3,3-difluorocyclobutyl)methyl][(1s,4s)-4-({[1-(trifluoromethyl)cyclopropyl]methyl}amino)cyclohexyl]amino}-1-oxo-3H-isoindol-2-yl)piperidine-2,6-dione]
 | > 1000 nM |  |  | CC1(C)CC(CN(c2cccc3c2CN(C2CCC(=O)NC2=O)C3=O)[C@H]2CC[C@@H](NCC3(C(F)(F)F)CC3)CC2)C1 (stereo partly drawn) [Compound 657A, 3-(4-{[(3,3-dimethylcyclobutyl)methyl][(1s,4s)-4-({[1-(trifluoromethyl)cyclopropyl]methyl}amino)cyclohexyl]amino}-1-oxo-3H-isoindol-2-yl)piperidine-2,6-dione; bis(trifluoroacetic acid)]
 | 100 to 1000 nM |  |  | O=C1CCC(N2Cc3c(cccc3N(CCC3CC3)[C@H]3CC[C@@H](N4CCC(C(F)(F)F)C4)CC3)C2=O)C(=O)N1 (stereo partly drawn) [Compound 672A, 3-{4-[(2-cyclopropylethyl)[(1s,4s)-4-[3-(trifluoromethyl)pyrrolidin-1-yl]cyclohexyl]amino]-1-oxo-3H-isoindol-2-yl}piperidine-2,6-dione; trifluoroacetic acid]
 | 100 to 1000 nM |  |  | COCCN(C)[C@H]1CC[C@@H](N(CCC2CC2)c2cccc3c2CN(C2CCC(=O)NC2=O)C3=O)CC1 (stereo partly drawn) [Compound 680A]
 | 100 to 1000 nM |  |  | CN(CCCC(F)(F)F)[C@H]1CC[C@@H](N(CCC2CC2)c2cccc3c2CN(C2CCC(=O)NC2=O)C3=O)CC1 (stereo partly drawn) [Compound 681A, 3-{4-[(2-cyclopropylethyl)[(1s,4s)-4-[methyl(4,4,4-trifluorobutyl)amino]cyclohexyl]amino]-1-oxo-3H-isoindol-2-yl}piperidine-2,6-dione]
